Source: EP0221541A2, “Quinolonecarboxylic acid derivatives and their preparation” (KYORIN PHARMACEUTICAL CO., LTD., priority 1985, dated 1987)
Converted amounts (≈) assume the structure as drawn.

Key:
Assay type in all cases: cell-based
[1] = system: Bacillus subtilis PCI 219; test: MIC, antibacterial spectrum (aerobic bacteria); conditions: Bacillus subtilis, PCI219
[2] = system: Staphylococcus aureus 209 P; test: MIC, antibacterial spectrum (aerobic bacteria); conditions: Staphylococcus aureus, 209P
S. aureus Smith = test: MIC, antibacterial spectrum (aerobic bacteria); conditions: Staphylococcus aureus
[3] = system: S. aureus IID 670 (Terajima); test: MIC, antibacterial spectrum (aerobic bacteria); conditions: Staphylococcus aureus, IID670
S. epidermidis IID 866 = test: MIC, antibacterial spectrum (aerobic bacteria); conditions: Staphylococcus epidermidis, IID866
E. faecalis IID 682 = test: MIC, antibacterial spectrum (aerobic bacteria); conditions: Enterococcus faecalis, IID682
[4] = system: Streptococcus pneumoniae IID 552; test: MIC, antibacterial spectrum (aerobic bacteria); conditions: Streptococcus pneumoniae, IID552
[5] = system: S. pyogenes IID 689 (S-8); test: MIC, antibacterial spectrum (aerobic bacteria); conditions: Streptococcus pyogenes, IID689
S. pyogenes IID 692 = test: MIC, antibacterial spectrum (aerobic bacteria); conditions: Streptococcus pyogenes, IID692
[6] = system: Escherichia coli NIHJ JC-2; test: MIC, antibacterial spectrum (aerobic bacteria); conditions: NIHJJC2, Escherichia coli NIHJ JC-2, Gram -, 10^6 cells/ml
E. coli ATCC 10536 = test: MIC, antibacterial spectrum (aerobic bacteria); conditions: Escherichia coli, ATCC10536
E. coli ML 4707 = test: MIC, antibacterial spectrum (aerobic bacteria); conditions: Escherichia coli, ML4707
[7] = system: Proteus vulgaris IFO 3167; test: MIC, antibacterial spectrum (aerobic bacteria); conditions: Proteus vulgaris, IFO3167
P. mirabilis IID 994 = test: MIC, antibacterial spectrum (aerobic bacteria); conditions: Proteus mirabilis, IID994
[8] = system: Citrobacter freundii IID 976; test: MIC, antibacterial spectrum (aerobic bacteria); conditions: Citrobacter freundii, IID976
[9] = system: Klebsiella pneumoniae KY(GN)6445; test: MIC, antibacterial spectrum (aerobic bacteria); conditions: Klebsiella pneumoniae
K. pneumoniae 1-220S = test: MIC, antibacterial spectrum (aerobic bacteria); conditions: Klebsiella pneumoniae, 1220S
[10] = system: Salmonella enteritidis IID 604; test: MIC, antibacterial spectrum (aerobic bacteria); conditions: Salmonella enterica
Shigella sonnei IID 969 = test: MIC, antibacterial spectrum (aerobic bacteria); conditions: IID969, Shigella sonnei IID 969, Gram -, 10^6 cells/ml
Procedure: Minimal inhibitory concentrations (MICs) were determined in accordance with the method recommended by Japan Society of Chemotherapy.

[11] = system: Yersinia enterocolitica IID 981; test: MIC, antibacterial spectrum (aerobic bacteria); conditions: Yersinia enterocolitica, IID981
[12] = system: Serratia marcescens IID 618; test: MIC, antibacterial spectrum (aerobic bacteria); conditions: Serratia marcescens, IID618
S. marcescens GN 7577 = test: MIC, antibacterial spectrum (aerobic bacteria); conditions: Serratia marcescens, GN7577
[13] = system: Pseudomonas aeruginosa V-1; test: MIC, antibacterial spectrum (aerobic bacteria); conditions: Pseudomonas aeruginosa, V1
P. aeruginosa IFO 12689 = test: MIC, antibacterial spectrum (aerobic bacteria); conditions: Pseudomonas aeruginosa, IFO12689
P. aeruginosa IID 1210 = test: MIC, antibacterial spectrum (aerobic bacteria); conditions: Pseudomonas aeruginosa, IID1210
P. cepacia GIFU 518 = test: MIC, antibacterial spectrum (aerobic bacteria); conditions: Burkholderia cepacia, GIFU518
P. maltophilia GIFU 2491 = test: MIC, antibacterial spectrum (aerobic bacteria); conditions: Stenotrophomonas maltophilia, GIFU2491
[14] = system: Acinetobacter anitratus IID 876; test: MIC, antibacterial spectrum (aerobic bacteria); conditions: Acinetobacter calcoaceticus, IID876
[15] = system: Alcaligenes faecalis 0114002; test: MIC, antibacterial spectrum (aerobic bacteria); conditions: Alcaligenes faecalis 0114002, Gram -, 10^6 cells/ml
[16] = system: Bacteroides fragilis GM 7000; test: MIC, antibacterial spectrum (anaerobic bacteria); conditions: Bacteroides fragilis, GM7000
B. fragilis 0558 = test: MIC, antibacterial spectrum (anaerobic bacteria); conditions: Bacteroides fragilis, 0558
B. fragilis 25285 = test: MIC, antibacterial spectrum (anaerobic bacteria); conditions: Bacteroides fragilis, 25285
B. distasonis 8503 = test: MIC, antibacterial spectrum (anaerobic bacteria); conditions: Parabacteroides distasonis, 8503
[17] = system: B. thetaiotaomicron (0661); test: MIC, antibacterial spectrum (anaerobic bacteria); conditions: Bacteroides thetaiotaomicron
[18] = system: Fusobacterium necrophorum S-45; test: MIC, antibacterial spectrum (anaerobic bacteria); conditions: Fusobacterium necrophorum, S45
[19] = system: Eubacterium lentum GAI 5242; test: MIC, antibacterial spectrum (anaerobic bacteria); conditions: Eggerthella lenta, GAI5242
[20] = system: Propionibacterium acens 11828; test: MIC, antibacterial spectrum (anaerobic bacteria); conditions: Propionibacterium, 11828
[21] = system: Peptococcus magnus KY 017; test: MIC, antibacterial spectrum (anaerobic bacteria); conditions: Finegoldia magna, KY017
C. perfringens KYA 13123 = test: microbe, parasite or virus in culture; conditions: Clostridium perfringens, KYA13123
C. ramosum = test: MIC, antibacterial spectrum (anaerobic bacteria); conditions: Thomasclavelia ramosa
[22] = system: Peptostreptococcus anaerobius KYA 27337; test: MIC, antibacterial spectrum (anaerobic bacteria); conditions: Peptostreptococcus anaerobius, KYA27337
Pst. micros UPI 5464-1 = test: MIC, antibacterial spectrum (anaerobic bacteria); conditions: Parvimonas micra, UPI54641, Pst. micros UPI 5464-1, Gram +, 10^6 cells/ml
[23] = system: Veillonella parvula KYA 10790; test: MIC, antibacterial spectrum (anaerobic bacteria); conditions: KYA10790, Veillonella parvula KYA 10790, Gram -, 10^6 cells/ml

SMILES: O=C(O)c1cn(C2CC2)c2cc(N3CCNCC3)c(F)cc2c1=O [CPFX, Ciprofloxacin, reference compound]
- MIC [1]: 0.05 µg/mL (≈ 0.151 µM)
- MIC [2]: 0.2 µg/mL (≈ 0.604 µM)
- MIC (S. aureus Smith): 0.39 µg/mL (≈ 1.18 µM)
- MIC [3]: 0.2 µg/mL (≈ 0.604 µM)
- MIC (S. epidermidis IID 866): 0.2 µg/mL (≈ 0.604 µM)
- MIC (E. faecalis IID 682): 0.78 µg/mL (≈ 2.35 µM)
- MIC [4]: 0.78 µg/mL (≈ 2.35 µM)
- MIC [5]: 0.78 µg/mL (≈ 2.35 µM)
- MIC (S. pyogenes IID 692): 0.78 µg/mL (≈ 2.35 µM)
- MIC [6]: ≤ 0.0063 µg/mL
- MIC (E. coli ATCC 10536): 0.0125 µg/mL (≈ 0.0377 µM)
- MIC (E. coli ML 4707): 0.0125 µg/mL (≈ 0.0377 µM)
- MIC [7]: 0.0125 µg/mL (≈ 0.0377 µM)
- MIC (P. mirabilis IID 994): 0.0125 µg/mL (≈ 0.0377 µM)
- MIC [8]: 0.0125 µg/mL (≈ 0.0377 µM)
- MIC [9]: 0.0125 µg/mL (≈ 0.0377 µM)
- MIC (K. pneumoniae 1-220S): 0.05 µg/mL (≈ 0.151 µM)
- MIC [10]: 0.0125 µg/mL (≈ 0.0377 µM)
- MIC (Shigella sonnei IID 969): 0.0125 µg/mL (≈ 0.0377 µM)
- MIC [11]: 0.05 µg/mL (≈ 0.151 µM)
- MIC [12]: 0.05 µg/mL (≈ 0.151 µM)
- MIC (S. marcescens GN 7577): 0.39 µg/mL (≈ 1.18 µM)
- MIC [13]: 0.05 µg/mL (≈ 0.151 µM)
- MIC (P. aeruginosa IFO 12689): 0.2 µg/mL (≈ 0.604 µM)
- MIC (P. aeruginosa IID 1210): 0.2 µg/mL (≈ 0.604 µM)
- MIC (P. cepacia GIFU 518): 0.39 µg/mL (≈ 1.18 µM)
- MIC (P. maltophilia GIFU 2491): 0.39 µg/mL (≈ 1.18 µM)
- MIC [14]: 0.1 µg/mL (≈ 0.302 µM)
- MIC [15]: 0.2 µg/mL (≈ 0.604 µM)
- MIC [16]: 6.25 µg/mL (≈ 18.9 µM)
- MIC (B. fragilis 0558): 3.13 µg/mL (≈ 9.45 µM)
- MIC (B. fragilis 25285): 6.25 µg/mL (≈ 18.9 µM)
- MIC (B. distasonis 8503): 6.25 µg/mL (≈ 18.9 µM)
- MIC [17]: 12.5 µg/mL (≈ 37.7 µM)
- MIC [18]: 1.56 µg/mL (≈ 4.71 µM)
- MIC [19]: 0.78 µg/mL (≈ 2.35 µM)
- MIC [20]: 12.5 µg/mL (≈ 37.7 µM)
- MIC [21]: 0.39 µg/mL (≈ 1.18 µM)
- MIC (C. perfringens KYA 13123): 0.39 µg/mL (≈ 1.18 µM)
- MIC (C. ramosum): 12.5 µg/mL (≈ 37.7 µM)
- MIC [22]: 1.56 µg/mL (≈ 4.71 µM)
- MIC (Pst. micros UPI 5464-1): 0.2 µg/mL (≈ 0.604 µM)
- MIC [23]: 0.2 µg/mL (≈ 0.604 µM)
